According to patent publication US4041064A, “16-Methyl prost-5-en-13-ynoic acid derivatives” (Carlo-Erba S.p.A., priority 1974, dated 1977):
Like-named read-outs stand apart in the source and are kept apart here.

Columns and labels:
[1] = test system: stress-induced gastric ulcers; test: Inhibition of stress-induced gastric ulcers in rats (Takagi-Okabe method); type: in vivo, rat; conditions: anti-ulcer; for ED50: Rattus norvegicus, read-out: ED50 (Fiducial Limits For P=0.05); for Potency Ratio (Fiducial Limits For P=0.05): PGE2 = 1 (conventional value)
Text: (§1) Moreover, the compounds of the present invention are endowed with an excellent anti-ulcer activity as well as with a strong gastric anti-secretory effect, as shown by the following Tables: where the conventional value of 1 is given to the anti-ulcer and anti-secretory activity of PGE2, and where the compounds of the invention are compared also with 13,14-dehydro-PGE2, 16S-methyl-PGE2 and 16(S,R)-methyl-13,14-dehydro-PGE2.
INHIBITION OF STRESS-INDUCED GASTRIC ULCERS IN RATS (*)
(*) The ulcers are induced according to the method of Takagi-Okabe (K.
Takagi et al., Jap. J. Pharmacol., 18, 9 (1968)

gastric secretion = test: Antisecretory activity in rats (Shay method); type: in vivo, rat; conditions: subcutaneously; for ED50: Rattus norvegicus, sc, read-out: ED50 (Fiducial Limits For P = 0.05); for Potency Ratio (Fiducial Limits For P=0.05): PGE2 = 1 (conventional value)
Text: as §1
ANTISECRETORY ACTIVITY IN RATS (*)
(*) The antisecretory activity was studied according to H. Shay et al.,

[2] = test system: bronchospasm in guinea-pigs; test: Anti-bronchospastic (anti-asthmatic) activity in guinea-pigs (histamine- and anaphylactic shock-induced bronchospasm); set-up: species or system guinea pig; conditions: in vivo and in vitro in guinea-pigs; for anti-bronchospastic activity: compared with natural PGE2; for anti-bronchospastic activity relative to natural PGE2: histamine- and anaphylactic shock-induced
Protocol: Four hours later, the same animals were treated with a spray of the test compounds at different solutions in saline, and with a spray of standard PGE2 solution. They were then given another histamine spray (0.2%) and again, the times taken for bronchospasm to appear were noted.

uterus of rats = test: Rat uterus test in vitro (oestrogenized rat uteri)
Protocol: The rat uterus test consisted of a 10 ml thermostatic bath held at 29° C., in which oestrogenized rat uteri under 0.5 g traction were carboxygenated in a Dejalon saline solution. The preparation was left to stabilize for 30 minutes before the compounds and the standard were tested. Response was measured using a isotonic frontal lever, long enough to amplify the response 4.5 times.

stomach of rats = test: Activity in vitro in the stomach of rats; conditions: rat stomach
ileum of guinea-pigs = test: Guinea pig ileum test in vitro
Protocol: The guinea pig ileum test consisted of a 10 ml thermostatic bath held at 35° C., containing the ileum of a male guinea pig, under 0.5 g traction, carboxygenated in a Tyrode solution; this was left for 30 minutes to stabilize before the compounds were tested. The response was recorded using a isotonic frontal lever, long enough to amplify the response 4.5 times.

Row | Compound | ED50 ([1]; po, os) | ED50 ([1]; sc, subcutaneously) | Potency Ratio (Fiducial Limits For P=0.05) ([1]; os) | Potency Ratio (Fiducial Limits For P=0.05) ([1]; subcutaneously) | ED50 (gastric secretion) | Potency Ratio (Fiducial Limits For P=0.05) (gastric secretion) | anti-bronchospastic activity [2] | anti-bronchospastic activity relative to natural PGE2 [2] | spasmogenic activity (uterus of rats) | activity in vitro in the stomach of rats (stomach of rats) | activity in vitro in the ileum of guinea-pigs (ileum of guinea-pigs)
1 | CCCC[C@@H](C)[C@@H](O)C#C[C@H]1[C@H](O)CC(=O)[C@@H]1C/C=C\CCCC(=O)O [16R-methyl-13,14-dehydro-15-epi-PGE2, 16r-methyl-5c-9-oxo-11α,15R-dihydroxy-prost-5-en-13-ynoic acid] | 0.141 mg/kg | 0.0087 mg/kg | 7.3(3.1-16.9) | 7.4(4.8-11.1) | 0.0328 mg/kg | 3.8 (2.7-5.5) | – | – | – | – | –
2 | CCCC[C@H](C)[C@@H](O)C#C[C@H]1[C@H](O)CC(=O)[C@@H]1C/C=C\CCCC(=O)O [16S-methyl-13,14-dehydro-15-epi-PGE2, 16s-methyl-5c-9-oxo-11α,15R-dihydroxy-prost-5-en-13-ynoic acid] | 0.22 mg/kg | 0.0911 mg/kg | 3.8(1.75-8.4) | 2.9(1.9-4.5) | – | – | – | – | – | – | –
3 | CCCC[C@H](C)[C@H](O)C#C[C@H]1[C@H](O)CC(=O)[C@@H]1C/C=C\CCCC(=O)O [16S-methyl-13,14-dehydro-PGE2, 16S-methyl-5c-9-oxo-11α,15S-dihydroxy-prost-5-en-13-ynoic acid] | 0.015 mg/kg | 0.0009 mg/kg | 42.8(18.8-101.7) | 69.8(46.4-105.2) | 0.0042 mg/kg | 35.7 (20.8-68.9) | very good anti-bronchospastic activity | four to six | – | – | –
4 | CCCCC[C@H](O)C#C[C@H]1[C@H](O)CC(=O)[C@@H]1C/C=C\CCCC(=O)O [13,14-dehydro-PGE2, reference compound] | 0.063 mg/kg | 0.043 mg/kg | 9.3(4.5-19.0) | 4.9(2.4-9.6) | 0.055 mg/kg | 2.6 (1.4-4.5) | – | – | – | – | –
5 | CCCC[C@H](C)[C@H](O)/C=C/[C@H]1[C@H](O)CC(=O)[C@@H]1C/C=C\CCCC(=O)O [16S-methyl-PGE2, reference compound] | 0.0242 mg/kg | 0.0177 mg/kg | 39.0(18.9-80.3) | 12.8(9.0-17.9) | 0.0112 mg/kg | 13.5 (7.9-23.7) | – | – | – | – | –
6 | CCCC[C@H](C)[C@H](O)C#C[C@@H]1[C@H](O)CC(=O)[C@H]1C/C=C\CCCC(=O)O (single isomer, unassigned) [16s-methyl-5c-9-oxo-11α,15S-trihydroxy-8,12-diiso-prost-5-en-13-ynoicacid] | – | – | – | – | – | – | – | – | excellent spasmogenic activity | practically devoid of any activity | practically devoid of any activity
7 | CCCCC(C)[C@H](O)C#C[C@H]1[C@H](O)CC(=O)[C@@H]1C/C=C\CCCC(=O)O (stereo partly drawn) [16(S,R)-methyl-13,14-dehydro-PGE2, reference compound] | 0.0202 mg/kg | 0.00341 mg/kg | 39.8(17.1-102.1) | 30.8(20.4-44.2) | 0.0068 mg/kg | 28.2 (18.1-41.6) | – | – | – | – | –
8 | CCCCC[C@H](O)/C=C/[C@H]1[C@H](O)CC(=O)[C@@H]1C/C=C\CCCC(=O)O [PGE2, reference compound] | 0.717 mg/kg | 0.119 mg/kg | – | – | 0.155 mg/kg | – | – | – | – | – | –
9 | CCCC[C@@H](C)[C@H](O)C#C[C@H]1[C@H](O)CC(=O)[C@@H]1C/C=C\CCCC(=O)O [16R-methyl-13,14-dehydro-PGE2, 16r-methyl-5c-9-oxo-11α,15S-dihydroxy-prost-5-en-13-ynoic acid] | 0.0098 mg/kg | 0.0015 mg/kg | 105.6(46.6-282.6) | 43.1(28.4-64.6) | 0.0026 mg/kg | 48.3 (33.5-71.6) | very good anti-bronchospastic activity | four to six | – | – | –
